Assay: RP, Waters ACQUITY UPLC BEH C8, 100 × 2.1 mm, 1.7 µm, 50 °C, 0.35 mL/min, estimated dead time 0.63 min; A: water + 0.1% formic acid; B: acetonitrile + 0.1% formic acid; gradient (min/%B) 0/5 1/5 24/100 28/100
Conditions: stereoisomer not certain

Row | Compound | LC retention time [min]
1 | CCCCCCCCCCCCCCCCCCCCCC(=O)OC(CC(=O)O)C[N+](C)(C)C (centres undefined) | 18.1
2 | CCCCC=CCCC(=O)OC(CC(=O)O)C[N+](C)(C)C (centres undefined) | 7.65
3 | CC(C)CCCC(C)C1CCC2C3CCC4=CC(=O)CCC4(C)C3CCC12C (centres undefined) | 21.8
4 | CCCCCCCCCCCCCCCCCC(N)=O | 18.4
5 | CC(=O)Nc1ccc(O)cc1 | 1.98
6 | NC(Cc1ccccc1)C(=O)O (centres undefined) | 1.63
7 | Cn1cnc2c(ncn2C2OC(CO)C(O)C2O)c1=N (centres undefined) | 1
8 | CCCCCC=CCC=CCCCCCCCC(=O)OCC(O)CO (centres undefined) | 17
9 | O=C(O)CCc1c[nH]c2ccccc12 | 7.33
10 | CC(C)NCC(O)COc1ccc(CC(N)=O)cc1 (centres undefined) | 2.03
11 | O=C(O)C1CCCN1 (centres undefined) | 0.9
12 | CC(C)(CO)C(O)C(=O)NCCC(=O)O (centres undefined) | 1.92
13 | CCCCC(=O)OC(CC(=O)O)C[N+](C)(C)C (centres undefined) | 3.7
14 | CC(C)C1=CC2=CCC3C(C)(C(=O)O)CCCC3(C)C2CC1 (centres undefined) | 17.1
15 | CCCCCCCCC=CCCCCCCCCCC(=O)O | 20.1
16 | O=C(O)c1ccccc1O | 4.47
17 | CC(C)CCCCCOC(=O)c1ccccc1C(=O)OCCCCCC(C)C | 20.8
18 | NC(Cc1ccccc1)C(=O)NC(Cc1ccccc1)C(=O)O (centres undefined) | 5.35
19 | Cn1cccc1-c1cccnc1 | 2.47
20 | CCCC(=O)OC(CC(=O)O)C[N+](C)(C)C (centres undefined) | 2.28
21 | CCCCCCC=CCCCCCCCCCC(=O)O | 18.9
22 | CCCCCCC=CCCCC(=O)OC(CC(=O)O)C[N+](C)(C)C (centres undefined) | 11.4
23 | Oc1ccc2[nH]ccc2c1 | 3.23
24 | CCCCCC=CCCC(=O)OC(CC(=O)O)C[N+](C)(C)C (centres undefined) | 9.35
25 | CCCCCCCCCCCCCCCCCCC(=O)OCC(O)COP(=O)([O-])OCC[N+](C)(C)C (centres undefined) | 16.8

Row | Compound | LC retention time [min]
26 | CCCCC=CC=CCCCCCC(=O)OC(CC(=O)O)C[N+](C)(C)C (centres undefined) | 11.9
27 | Nc1ccccc1C(=O)CC(N)C(=O)O (centres undefined) | 1.53
28 | CCCCCCCCCCCCCCC(=O)OC(CC(=O)O)C[N+](C)(C)C (centres undefined) | 13.8
29 | CCCCCCCCCCCCCCCC(=O)OCC(O)COP(=O)([O-])OCC[N+](C)(C)C (centres undefined) | 14.3
30 | CCCCCCCCCCCCCC=CC(O)C(N)COP(=O)(O)O (centres undefined) | 13
31 | CCn1cc(C(=O)O)c(=O)c2ccc(C)nc21 | 7.7
32 | CCC=CCC=CCC=CCC=CCC=CCCCC(=O)O | 18.1
33 | C=CC1=C(C)C(C=c2[nH]c(=Cc3[nH]c(C=C4NC(=O)C(C)=C4C=C)c(C)c3CCC(=O)O)c(CCC(=O)O)c2C)=NC1=O | 10.7
34 | CCC=CCC=CCCC(=O)OC(CC(=O)O)C[N+](C)(C)C (centres undefined) | 8.58
35 | CC(CCC(=O)NCC(=O)O)C1CCC2C3CCC4CC(O)CCC4(C)C3CC(O)C12C (centres undefined) | 11.8
36 | O=C(O)C1CCCCN1 (centres undefined) | 0.817
37 | NC(Cc1c[nH]c2ccccc12)C(=O)O (centres undefined) | 2.47
38 | CCCCCC=CCC=CCC=CCCCCCCC(=O)OCC(COP(=O)([O-])OCC[N+](C)(C)C)OC(=O)CCCCCCCCCCCCC (centres undefined) | 20.2
39 | CCCCC=CCCCCCCCC(=O)OC(CC(=O)O)C[N+](C)(C)C (centres undefined) | 12.7
40 | NN1CCOC1=O | 1.6
41 | C[N+](C)(C)CC(O)CC(=O)[O-] (centres undefined) | 0.767
42 | CC(CCC(=O)O)C1CCC2C3CCC4CC(O)CCC4(C)C3CC(O)C12C (centres undefined) | 13.3
43 | CC(=O)Nc1ccc(OC2OC(C(=O)O)C(O)C(O)C2O)cc1 (centres undefined) | 1.22
44 | CCCCCCCCCCCCCC(=O)OC(CC(=O)O)C[N+](C)(C)C (centres undefined) | 13.3
45 | CCCCCCCCOC(=O)c1ccccc1C(=O)OCCCCCCCC | 21.4
46 | CCCCCCCCCCCCCCCCCCOCC(O)COP(=O)([O-])OCC[N+](C)(C)C (centres undefined) | 15.3
47 | CCCCCCC=CCCCCCCCC(=O)O | 17.4
48 | CC(=O)CCC=C(C)CCC=C(C)CCC=C(C)C | 17.9
49 | Cc1cnc2ccccc2c1 | 2.47

Reference: the RepoRT retention time repository (doi:10.1038/s41596-020-0341-5)
